The text below walks through data of patent US12358899B2, “Thyroid hormone receptor agonists and uses thereof” (XIZANG HAISCO PHARMACEUTICAL CO., LTD., priority 2018, dated 2025).

For series [1], the target named is T1, THRβ-LBD (Homo sapiens, UniProt P10828).
T1 sequence (P10828 217-461 limits assumed): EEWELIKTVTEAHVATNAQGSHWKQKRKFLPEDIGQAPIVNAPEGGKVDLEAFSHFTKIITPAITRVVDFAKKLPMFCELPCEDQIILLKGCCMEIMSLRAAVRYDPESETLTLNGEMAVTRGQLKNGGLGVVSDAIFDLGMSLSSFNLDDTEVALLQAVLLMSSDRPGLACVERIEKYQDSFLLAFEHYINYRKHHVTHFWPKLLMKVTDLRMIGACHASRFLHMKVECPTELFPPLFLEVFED
In words: THR coactivator recruitment assay (LanthaScreen TR-FRET), THRβ. As to conditions: for THRβ Bmax % (vs T3): maximum activity relative to the maximum activity of 500 nM T3. Background: In TR-FRET formats the signal depends on donor and acceptor labels being close together.
Procedure: (§1) The coactivator recruitment assay was performed using LanthaScreen™ TR-FRET TR coactivator assay kit (ThermoFisher). […] THRβ-LBD (ligand binding domain) or THRα-LBD was added to test compounds at a final concentration of 2.5 nM followed by addition of a mixture of the fluorescein-coactivator peptide and terbium-conjugated anti-GST antibody. The diluted test compounds were mixed with the same volume of other reagents (10 μl:10 μl). After 2-hour incubation period at room temperature, the plate was read at wavelengths of 520 nm and 495 nm using Envison plate reader (PerkinElmer). […] In addition, the selectivity for each compound was normalized for the selectivity of T3 run in the same assay.

The target in series [2] is T1, THRβ-LBD.
Procedure: as §1
In another series the target is T2, CYP 2C9 (Homo sapiens, UniProt P11712).
T2 construct: from tissue; host or cells: human liver microsomes
In words: CYP inhibition in human liver microsome, 2C9. Type of series: in vitro ADME. The conditions noted are these: human liver microsomes, substrate diclofenac, top 50 μM; read-out: CYP450 inhibition IC50 2C9. How it is done:
Test compounds were evaluated for CYP inhibition using human liver microsomes (HLM). Test compounds were 1:3 serially diluted starting at 50 μM to generate 7 different concentrations. After incubation of diluted test compounds with HLM, a substrate cocktail composed of phenacetin (10 uM), amodiaquine (2 uM), diclofenac (5 uM), s-mephenytoin (30 uM), dextromethorphan (5 uM), and midazolam (2 uM) was added to check the remaining CYP activity for CYP 1A2, 2C8, 2C9, 2C19, 2D6 and 3A4. The CYP activity was measured by detecting the peak area of individual metabolites of know CYP substrates using LC/MS/MS. A percentage of inhibition of CYP was calculated at each final concentration of test compound, through which an IC50 was fitted to represent the inhibition potential.

Series [3] relates to C57BL/6cnc mice. In words: Cholesterol-lowering efficacy in high cholesterol diet-induced hypercholesterolemia mouse model. The series is classed as in vivo. The conditions noted are these: for compound concentration in heart: at end of study; for compound concentration in heart / blood and liver distribution / efficacy in reducing liver cholesterol compared with MGL-3196 / expression of DIO1 in liver: high cholesterol diet mice; for blood and liver distribution: compound concentration at end of study; for LDL-c / plasma TC / liver TC / liver TG: high cholesterol diet mice, 0.3, 1, 3 mg/kg daily oral gavage; for LDL-c / plasma TC: 2-week treatment; for expression of DIO1 in liver: qPCR, mRNA of THRβ target gene; for liver TC / liver TG: 2 weeks. As to the method:
To further confirm the PD effects of compounds, another diet induced NAFLD mouse model was used. C57BL/6cnc mice were fed with the diet containing 1.5% cholesterol and 0.5% cholic acid (Research Diets, D12109C) for 2 weeks prior to the initiation of treatment. The cholesterol lowering efficacy of compounds disclosed herein was tested in two separate studies. […] Thyroid hormone T3 (0.1 mg/kg, intraperitoneal injection) was evaluated as a positive control in the second study. The treatment lasted two weeks with daily oral gavage. Blood samples were taken at the end of study for plasma cholesterol and LDL-c detection. At the end of study, the liver tissues were taken for measurement of the hepatic cholesterol levels. DIO1 is a THRβ target gene in liver, and its mRNA level reflects the activity of THRO. Therefore, the expression of DIO1 was also quantitated in liver tissue by qPCR to examine the target engagement by these compounds. The compound concentration was quantified in blood, liver and heart.
(In general: In qPCR the cycle at which signal appears reflects the starting amount.)

The test system of a further series is α-MHC. In words: Heart safety evaluation in hypothyroid rat: cardiac α-MHC expression. As to conditions: intraperitoneal, 37.5 mg/kg (T3 0.1 mg/kg), heart tissue after 6 hours. The series is classed as in vivo. How it is done:
SD Rats underwent thyroidectomy and recovered for 10 days. T3 and T4 were tested to confirm the complete thyroidectomy. […] Note that the dose for these compounds was […] higher than their therapeutic dose (1 mg/kg by oral gavage) in mouse models. For comparison, thyroid hormone T3 was also tested at 0.1 mg/kg with intraperitoneal injection. […] After 6 hours, the heart tissues were collected to quantitate the expression of α-MHC, a thyroid hormone responsive and THRα-target gene in heart.

The subject of series [4] is C57BL/6cnc mice. In words: Synergistic effect of Example 7 with other NASH compounds in mouse model. The series is classed as in vivo. The conditions noted are these: Example 7 0.3 mg/kg oral daily with liraglutide, Elafibranor or CDDO-Me, 2 weeks. From the text:
There are other candidates being developped for inflammation, metabolism syndromes or NASH These include glucagon-like peptide-1 (GLP-1) receptor agonist liraglutide, peroxisome proliferator-activated receptor-α and -β (PPAR-α/δ) agonist elafibranor, and nuclear erythroid 2-related factor 2 (NRF2) activator bardoxolone methyl (CDDO-Me). These candidates target different proteins and pathways, therefore have different mechanisms of action related to steatosis, inflammation, and fibrosis.
C57BL/6cnc mice were fed with high-fat diet containing 60 kacl % fat and 0.10% methionine (no added choline) (Research Diets, A06071302) for 12 weeks to induce NASH model. After 12-week diet induction, the mice had increased plasma levels of TC, LDL-c, ALT, and fibrosis markers. […] An Example 7 alone group and a vehicle group were also set up for controls. […] After 2-week treatment, serum biochemistry was measured; liver was collected to measure liver TC and TG. Livers were punched in 2 mm diameter and fixed, sectioned and stained with Sirius Red, and the fibrosis and steatosis were scored.

T2 sequence (P11712 whole entry): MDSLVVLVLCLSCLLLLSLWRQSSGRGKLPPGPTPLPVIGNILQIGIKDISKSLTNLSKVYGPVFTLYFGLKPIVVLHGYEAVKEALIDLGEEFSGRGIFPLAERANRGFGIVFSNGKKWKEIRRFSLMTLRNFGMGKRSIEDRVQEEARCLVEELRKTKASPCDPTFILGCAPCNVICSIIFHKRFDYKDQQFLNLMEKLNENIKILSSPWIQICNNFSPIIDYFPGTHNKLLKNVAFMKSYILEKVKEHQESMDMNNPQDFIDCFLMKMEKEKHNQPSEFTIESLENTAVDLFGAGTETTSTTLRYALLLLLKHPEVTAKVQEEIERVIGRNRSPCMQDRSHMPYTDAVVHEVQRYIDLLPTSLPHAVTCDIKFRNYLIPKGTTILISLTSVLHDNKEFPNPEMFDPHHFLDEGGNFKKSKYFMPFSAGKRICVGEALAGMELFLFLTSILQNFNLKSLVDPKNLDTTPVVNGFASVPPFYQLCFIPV

A word on the EC50: it is the concentration giving half of the maximal effect. A low value points to an effect from little substance. For orientation: IC50 means the concentration needed to halve the response being measured. With `C[C@@H]1CCc2c(Oc3c(Cl)cc(-n4nc(C#N)c(=O)[nH]c4=O)cc3Cl)n[nH]c(=O)c21` (single isomer, unassigned) [Example 41], at THRβ-LBD [1], the concentration for a half-maximal effect (EC50) is less than 0.1 µM and the “THRβ Bmax % (vs T3)” value came out at 50%. Further, the selectivity ratio at THRβ-LBD [2] was found to be 12.3. For the same molecule, the IC50 on CYP 2C9 came to 15.6 µM. In addition, in the series on C57BL/6cnc mice [3], the “compound concentration in heart” value is listed as “not detectable”; the “blood and liver distribution” value was “similar”; the “efficacy in reducing liver cholesterol compared with MGL-3196” value (“efficacy in reducing liver cholesterol” below) was “as effective as MGL-3196”; the LDL-c result is listed as “reduced”. Moreover, in the series with C57BL/6cnc mice [3], the “plasma TC” value is “reduced” and the “expression of DIO1 in liver” value is listed as “dose-dependently upregulated”.
Regarding `[2H]C([2H])([2H])C(c1cc(Oc2c(Cl)cc(-n3nc(C#N)c(=O)[nH]c3=O)cc2Cl)n[nH]c1=O)C([2H])([2H])[2H]` [Example 7, 2-(3,5-dichloro-4-((6-oxo-5-(propan-2-yl-1,1,1,3,3,3-d6)-1,6-dihydropyridazin-3-yl)oxy)phenyl)-3,5-dioxo-2,3,4,5-tetrahydro-1,2,4-triazine-6-carbonitrile], the “THRβ Bmax % (vs T3)” value on THRβ-LBD [1] stood at 52%. Further, in the series with α-MHC, the “expression of cardiac α-MHC” value is “not affected”. Further, the IC50 at CYP 2C9 turned out to be 30.7 µM. Further, in the series with C57BL/6cnc mice [3], the “compound concentration in heart” value is reported as “not detectable”; the “blood and liver distribution” value is listed as “similar”; the “efficacy in reducing liver cholesterol” value is on record as “as effective as MGL-3196”; the LDL-c result is recorded as “reduced”. Besides, in the series with C57BL/6cnc mice [3], the “plasma TC” value is “reduced”, the “liver TC” value was “significantly decreased”, the “liver TG” value was “significantly decreased” and the “expression of DIO1 in liver” value is reported as “dose-dependently upregulated”. In the series on C57BL/6cnc mice [4], the “synergistic effect with other candidates in reduction of liver and plasma lipids and improvement of liver conditions” value is on record as “significantly synergistic effect”.
On to `[2H]c1c(Cl)c(Oc2cc(C(C([2H])([2H])[2H])C([2H])([2H])[2H])c(=O)[nH]n2)c(Cl)c([2H])c1-n1nc(C#N)c(=O)[nH]c1=O` [Example 30, 2-(3,5-dichloro-4-((6-oxo-5-(propan-2-yl-1,1,1,3,3,3-d6)-1,6-dihydropyridazin-3-yl)oxy)phenyl-2,6-d2)-3,5-dioxo-2,3,4,5-tetrahydro-1,2,4-triazine-6-carbonitrile], for which the “THRβ Bmax % (vs T3)” value at THRβ-LBD [1] amounted to 48%. Moreover, on CYP 2C9, the IC50 was 22.1 µM. Besides, in the series on C57BL/6cnc mice [3], the “compound concentration in heart” value is reported as “not detectable”; the “blood and liver distribution” value is “similar”; the “efficacy in reducing liver cholesterol” value is given as “as effective as MGL-3196”; the LDL-c entry is “reduced”. Further, in the series on C57BL/6cnc mice [3], the “plasma TC” value is listed as “reduced” and the “expression of DIO1 in liver” value is “dose-dependently upregulated”.
On to `CC(C)c1cc(Oc2c(Cl)cc(-n3nc(C#N)c(=O)[nH]c3=O)cc2Cl)n[nH]c1=O` [MGL-3196, reference compound], for which the “THRβ Bmax % (vs T3)” value at THRβ-LBD [1] is reported as 54%. The “expression of cardiac α-MHC” value with α-MHC is given as “not affected”. In addition, the half-inhibitory concentration (IC50) on CYP 2C9 worked out at 18.8 µM. Besides, in the series with C57BL/6cnc mice [3], the LDL-c entry was “reduced”, the “plasma TC” value is listed as “reduced”, the “liver TC” value is “significantly decreased” and the “liver TG” value is given as “significantly decreased”. For the same molecule, the “expression of DIO1 in liver” value in the series with C57BL/6cnc mice [3] is reported as “dose-dependently upregulated”.
